According to patent US6596778B1, “β-endorphin peptides for treating muscle-wasting diseases” (The University of Birmingham, priority 1997, dated 2003):
Where a SMILES comes first, the peptide text is derived from it. Where no end group is shown, it is not given here. [ ]: non-standard residue; d: D form. Sar = CNCC(=O)O

Legend:
mouse diaphragm muscle [1] = assay type: cell-based, mice, C57BL/6j strain; settings: for blockade of the agonist's/peptide's effect on contractile responses by BNTX (d1-opioid antagonist): BNTX 2.5×10^−7 M; for blockade of the agonist's/peptide's effect on contractile responses by BNTX (d1-opioid antagonist) / blockade of the agonist's/peptide's effect on contractile responses by NTB (d2-opioid antagonist): agonist/peptide 2.5×10^−7 M; for blockade of the agonist's/peptide's effect on contractile responses by NTB (d2-opioid antagonist): NTB 2.5×10^−7 M; for blockade of the peptide's effect on contractile responses by naloxone: naloxone 2.5×10^−6 M; for blockade of the peptide's effect on contractile responses by naloxone / 1/2 relaxation time / Time to peak: peptide 2.5×10^−7 M; for 1/2 relaxation time / Time to peak: low frequency indirect stimulation, mean ± S.E.M.
Protocol: (§1) Adult female mice, 3-4 months of age, of the C57BL/6j strain were killed by cervical dislocation and the skin and musculature around the rib cage were removed. The diaphragm and part of the rib cage were carefully dissected out along with a length of the left phrenic nerve. The left hemidiaphragm (together with the left phrenic nerve stump) was pinned out in an organ bath containing oxygenated Krebs solution which was gassed continuously with 95% O2-5% CO2 at room temperature (approximately 20° C.) as described in Khan, S.; Smith, M. E., Muscle Nerve, 18, 1250-1256; 1995. The central tendon was attached with the aid of a silk thread to a force transducer (Dynamometer, model UF1), and the phrenic nerve was introduced into the end of a suction electrode for indirect stimulation.
(§2) The phrenic nerve was stimulated continuously at a low frequency (0.5 Hz) with supramaximum square wave pulses of 0.2 msec width using a dual channel stimulator (Digitimer D4030). The muscle was allowed to equilibrate until the responses of the stimulated muscle had reached a constant amplitude (approximately 20 min). Krebs solution ([…]), or a solution ([…]) of the appropriate peptide, was added to the centre of the organ bath whilst the contractions were being recorded.
(§3) Direct stimulation of the muscle was effected by two stainless steel needle electrodes placed near the centre of the hemidiaphragm. The position of the force transducer was adjusted until a constant resting tension was seen. When direct stimulation of the muscle was employed d-tubocurarine chloride (2.5×10^−6M) was included in the bathing medium to block the acetylcholine (ACh) receptors and prevent indirect stimulation of the muscles via the motor nerve terminals. The phrenic nerve was stimulated continuously at 0.5 Hz, d-tubocurarine was added to the organ bath, and then, when the responses to nerve stimulation had ceased, the muscle was subjected to continuous direct supramaximum stimulation at a frequency of 0.5 Hz. […] The amplitude, time to peak and half relaxation time of the contractions developed in response to indirect and direct stimulation were determined. The half-relaxation time of the contractions was expressed as the time taken for the tension to decline from the maximum amplitude to half maximum. The dose-response curves were analyzed using a Kaloidograph software package to determine the values for EC50 and maximum response. The significance of the results was determined, unless otherwise stated, using ANOVA, with treatment as the grouping factor, followed by the Bonferroni-Dunn post hoc test.

mouse diaphragm muscle [2] = assay: Contractions of hemidiaphragm in response to direct stimulation of the muscle in the presence of d-tubocurarine; assay type: cell-based, mice, C57BL/6j strain; settings: peptide 2.5×10^−8 M, mean ± S.E.M.
Protocol: as §1
as §3, with “terminals.” for “terminals. The phrenic nerve was stimulated continuously at 0.5 Hz, d-tubocurarine was added to the organ bath, and then, when the responses to nerve stimulation had ceased, the muscle was subjected to continuous direct supramaximum stimulation at a frequency of 0.5 Hz.”, “test. […]” for “test.”

dystrophic mice = assay: Chronic intravenous injection in dystrophic mice (body weight, EDL muscle weight, CPK in blood and muscle); assay type: in vivo
Protocol: In one series of experiments, the C-terminal peptide, glycylglutamine, was injected intravenously into the blood of dystrophic mice 4 to 5 times a week in an amount of approximately 1.5 microgram/g body weight each time over a seven week period. Control mice were injected with the same volume of saline at the same times. There were six mice in each group.
The following measurements were made:
1. Change in body weight (the dystrophic mice would usually not gain significant weight over seven weeks and might even lose weight-depending on their age).
2. Weight of the extensor digitorum longus (EDL) muscle.
3. Level of CPK in the blood (a diagnostic test for muscular dystrophy is to measure the level of CPK in the blood. In muscle diseases, the blood levels of enzymes such as CPK are elevated and in muscular dystrophy the levels can be very high).
4. CPK enzyme levels in the muscle.

mouse diaphragm muscle [3] = assay: Contractions of hemidiaphragm in response to nerve stimulation in the presence of neostigmine sulphate; assay type: cell-based, mice, C57BL/6j strain; settings: neostigmine sulphate 10^−5 M, peptide 10^−7 M; mean ± S.E.M.
Protocol: as §1
as §2, with “recorded. […]” for “recorded.”

[4] = test system: CPK leakage into the blood; settings: intravenous injection of β-endorphin alone; cited from earlier work
[5] = indirect stimulation 0.5 Hz, mean ± SEM

## NCC(=O)N[C@@H](CCC(N)=O)C(=O)O [glycylglutamine, glycyl-L-glutamine] (H-Gly-Gln-OH)
Mouse diaphragm muscle [1]
  blockade of the agonist's/peptide's effect on contractile responses by BNTX (d1-opioid antagonist): Neither naloxone, BNTX, nor NTB blocked
  blockade of the agonist's/peptide's effect on contractile responses by NTB (d2-opioid antagonist): Neither naloxone, BNTX, nor NTB blocked
  blockade of the peptide's effect on contractile responses by naloxone: Neither naloxone, BNTX, nor NTB blocked
Mouse diaphragm muscle [1]; indirect stimulation
  lowest concentration at which significant increases in contractile responses were seen: 10^−10 M
Mouse diaphragm muscle [1]; indirect stimulation 0.5 Hz
  effect on the amplitude of the contractions (in words): immediate increase
Mouse diaphragm muscle [1]; [5]
  maximum increase in the response: 18.5±1.5%
Mouse diaphragm muscle [2]
  tension developed, % of the control values (absence of added peptide): 98.7±0.9%
Dystrophic mice; i.v. approximately 1.5 microgram/g 4 to 5 times a week, seven week period, statistically significant
  increase in body weight: approximately 12%
Dystrophic mice; i.v. approximately 1.5 microgram/g 4 to 5 times a week, seven weeks
  reduction of CPK level in the blood: 25%
Dystrophic mice; i.v. approximately 1.5 microgram/g 4 to 5 times a week, seven weeks, not statistically significant
  increase in EDL muscle weight: approximately 5%
Dystrophic mice; seven weeks, calculated on a wet weight basis
  increase of enzyme (CPK) concentration in the EDL muscle: 55%

## β-endorphin1-27 (YGGFMTSEKSQTPLVTLFKNAIIKNAY; Beta-endorphin; UniProt P01189 237-263, looked up, fragment)
Mouse diaphragm muscle [3]
  tension developed in the presence of neostigmine sulphate: 102.3±1.2%
Mouse diaphragm muscle [1]
  blockade of the agonist's/peptide's effect on contractile responses by NTB (d2-opioid antagonist): neither
  blockade of the peptide's effect on contractile responses by naloxone: had no effect on the amplitude of the contractions
  1/2 relaxation time: 99.4 ± 0.4 percentage of the untreated controls
  Time to peak: 98.1 ± 0.4 percentage of the untreated controls
Mouse diaphragm muscle [1]; indirect stimulation 0.5 Hz
  effect on the amplitude of the contractions (in words): immediate increase
Mouse diaphragm muscle [1]; [5]
  maximum increase in the response: not maximum even at 10^−6 M
Mouse diaphragm muscle [2]
  tension developed, % of the control values (absence of added peptide): 99.6±0.5%

## CC(C)[C@H](NC(=O)[C@H](CCC(=O)O)NC(=O)[C@H](Cc1ccccc1)NC(=O)[C@@H](C)NC(=O)[C@@H](N)Cc1ccc(O)cc1)C(=O)N[C@H](C(=O)NCC(N)=O)C(C)C [deltorphin II]
Mouse diaphragm muscle [1]; indirect stimulation 0.5 Hz, room temperature, read-out: EC50 for increase in contractile response
  EC50: 200 pM

## Ac-K[dK][Sar]E [β-endorphin28-31 analogue]
Mouse diaphragm muscle [3]
  tension developed in the presence of neostigmine sulphate: 103.4±1.0%
Mouse diaphragm muscle [1]
  blockade of the agonist's/peptide's effect on contractile responses by BNTX (d1-opioid antagonist): Neither naloxone, BNTX, nor NTB blocked
  blockade of the agonist's/peptide's effect on contractile responses by NTB (d2-opioid antagonist): Neither naloxone, BNTX, nor NTB blocked
  blockade of the peptide's effect on contractile responses by naloxone: Neither naloxone, BNTX, nor NTB blocked
  1/2 relaxation time: 102.8 ± 2.6 percentage of the untreated controls
  Time to peak: 95.9 ± 0.3 percentage of the untreated controls
Mouse diaphragm muscle [1]; indirect stimulation
  duration of the effect on amplitude after addition of the peptide: at least 6 minutes
  lowest concentration at which significant increases in contractile responses were seen: 10^−10 M
Mouse diaphragm muscle [1]; indirect stimulation 0.5 Hz
  effect on the amplitude of the contractions (in words): immediate increase
Mouse diaphragm muscle [1]; [5]
  maximum increase in the response: 16.7±0.9%
Mouse diaphragm muscle [2]
  tension developed, % of the control values (absence of added peptide): 100±1.1%

## β-Endorphin 1-16 (YGGFMTSEKSQTPLVT; Beta-endorphin; UniProt P01189 237-252, looked up, fragment) [β-endorphin fragment (α-endorphin)]
Mouse diaphragm muscle [1]; indirect stimulation 0.5 Hz
  effect on the amplitude of the contractions (in words): no significant effect
Mouse diaphragm muscle [1]; peptide 10^−6 M, indirect stimulation
  tension developed, % of the control tension: 102.0±0.2%

## CC[C@H](C)[C@H](NC(=O)[C@H](C)NC(=O)[C@H](CC(N)=O)NC(=O)[C@H](CCCCN)NC(=O)[C@H](Cc1ccccc1)NC(=O)[C@H](CC(C)C)NC(=O)[C@@H](NC(=O)[C@@H](NC(=O)[C@H](CC(C)C)NC(=O)[C@@H]1CCCN1C(=O)[C@@H](NC(=O)[C@H](CCC(N)=O)NC(=O)[C@H](CO)NC(=O)[C@H](CCCCN)NC(=O)[C@H](CCC(=O)O)NC(=O)[C@H](CO)NC(=O)[C@@H](NC(=O)[C@H](CCSC)NC(=O)[C@H](Cc1ccccc1)NC(=O)CNC(=O)CNC(=O)[C@@H](N)Cc1ccc(O)cc1)[C@@H](C)O)[C@@H](C)O)C(C)C)[C@@H](C)O)C(=O)N[C@H](C(=O)N[C@@H](CCCCN)C(=O)N[C@@H](CC(N)=O)C(=O)N[C@@H](C)C(=O)N[C@@H](Cc1ccc(O)cc1)C(=O)N[C@@H](CCCCN)C(=O)N[C@@H](CCCCN)C(=O)NCC(=O)N[C@@H](CCC(=O)O)C(=O)O)[C@@H](C)CC [β-endorphin]
Mouse diaphragm muscle [1]
  blockade of the agonist's/peptide's effect on contractile responses by NTB (d2-opioid antagonist): neither
  blockade of the peptide's effect on contractile responses by naloxone: complete blockade
  1/2 relaxation time: 99.6 ± 0.3 percentage of the untreated controls
  Time to peak: 94.1 ± 0.5 percentage of the untreated controls
Mouse diaphragm muscle [1]; indirect stimulation 0.5 Hz
  effect on the amplitude of the contractions (in words): immediate increase
Mouse diaphragm muscle [1]; [5]
  maximum increase in the response: 34.4±2.9%
[4]
  effect in preventing CPK leakage into the blood: little effect

## N[C@@H](CCC(=O)O)C(=O)O [L-glutamic acid]
Mouse diaphragm muscle [1]; indirect stimulation 0.5 Hz
  effect on the amplitude of the contractions (in words): no effect

## N-Acetyl β-endorphin (Ac-YGGFMTSEKSQTPLVTLFKNAIIKNAYKKGE; UniProt P01189 237-267, looked up)
Mouse diaphragm muscle [1]; indirect stimulation 0.5 Hz
  effect on the amplitude of the contractions (in words): no significant effect
Mouse diaphragm muscle [1]; three preparations, concentration not given, mean ± SEM
  responses in the presence of the peptide: 101.5±0.7%
